The results in this text go back to ChEMBL document CHEMBL4321812, “Structure-based rational design of staurosporine-based fluorescent probe with broad-ranging kinase affinity for kinase panel application” (Bioorg Med Chem Lett, 2019).

Test [1] deals with Serine/threonine-protein kinase TNNI3K (Homo sapiens, UniProt Q59H18). Kind of test: Binding affinity to recombinant N-terminal His-FLAG-GST-tagged TNNI3K (unknown origin) (1 to 727 residues) expressed in baculovirus infected Sf9 insect cells incubated for 1 hr by TR-FRET assay. (In TR-FRET formats the signal depends on donor and acceptor labels being close together.)
In test [2] the target is Calcium/calmodulin-dependent protein kinase type II subunit delta (Homo sapiens, UniProt Q13557). Kind of test: Binding affinity to recombinant human full-length N-terminal GST-tagged CAMK2D expressed in baculovirus expression system using GS peptide as substrate incubated for 1 hr by TR-FRET assay.
Test [3] concerns the target Calcium/calmodulin-dependent protein kinase kinase 2 (Homo sapiens, UniProt Q96RR4). Kind of test: Binding affinity to recombinant full-length N-terminal His-FLAG-GST-tagged CAMKK2 (unknown origin) expressed in baculovirus infected Sf9 insect cells incubated for 1 hr in presence of calmodulin by TR-FRET assay.
Test [4] concerns the target Serine/threonine-protein kinase ULK3 (Homo sapiens, UniProt Q6PHR2). Kind of test: Binding affinity to recombinant full-length N-terminal His-FLAG-GST-tagged ULK3 (unknown origin) expressed in baculovirus infected Sf9 insect cells incubated for 1 hr by TR-FRET assay.
In test [5] the target is Glycogen synthase kinase-3 alpha (Homo sapiens, UniProt P49840). Kind of test: Binding affinity to recombinant full-length N-terminal His-GST-tagged GSK3A (unknown origin) expressed in baculovirus infected Sf9 insect cells incubated for 1 hr by TR-FRET assay.
Test [6] addresses Mitogen-activated protein kinase 12 (Homo sapiens, UniProt P53778). Kind of test: Binding affinity to recombinant full-length N-terminal His-FLAG-GST-tagged MAPK12 (unknown origin) expressed in baculovirus infected Sf9 insect cells incubated for 1 hr by TR-FRET assay.
Test [7] addresses Myosin-IIIb (Homo sapiens, UniProt Q8WXR4). Kind of test: Binding affinity to recombinant full-length N-terminal His-FLAG-GST-tagged MYO3B (unknown origin) (1 to 362 residues) expressed in baculovirus infected Sf9 insect cells incubated for 1 hr by TR-FRET assay.
Test [8] deals with Protein kinase C alpha type (Homo sapiens, UniProt P17252). Kind of test: Binding affinity to recombinant full-length N-terminal His-FLAG-GST-tagged PRKCA (unknown origin) expressed in baculovirus infected Sf9 insect cells incubated for 1 hr by TR-FRET assay.
For test [9], the target named is Death-associated protein kinase 1 (Homo sapiens, UniProt P53355). Kind of test: Binding affinity to recombinant full-length N-terminal His-FLAG-GST-tagged DAPK1 (unknown origin) (1 to 289 residues) expressed in baculovirus infected Sf9 insect cells incubated for 1 hr by TR-FRET assay.
Test [10] addresses Serine/threonine-protein kinase 38-like (Homo sapiens, UniProt Q9Y2H1). Kind of test: Binding affinity to recombinant full-length N-terminal His-FLAG-GST-tagged STK38L (unknown origin) expressed in baculovirus infected Sf9 insect cells incubated for 1 hr by TR-FRET assay.
Test [11] has as its target Macrophage colony-stimulating factor 1 receptor (Homo sapiens, UniProt P07333). Kind of test: Binding affinity to recombinant N-terminal His-FLAG-GST-tagged CSF1R (unknown origin) (538 to 972 residues) expressed in baculovirus infected Sf9 insect cells incubated for 1 hr by TR-FRET assay.
Test [12] has as its target Tyrosine-protein kinase FRK (Homo sapiens, UniProt P42685). Kind of test: Binding affinity to recombinant full-length N-terminal His-FLAG-GST-tagged FRK (unknown origin) (223 to 505 residues) expressed in baculovirus infected Sf9 insect cells incubated for 1 hr […] by TR-FRET assay.
Test [13] addresses Testis-specific serine/threonine-protein kinase 1 (Homo sapiens, UniProt Q9BXA7). Kind of test: Binding affinity to recombinant full-length N-terminal His-FLAG-GST-tagged TSSK1B (unknown origin) expressed in baculovirus infected Sf9 insect cells incubated for 1 hr by TR-FRET assay.
Test [14] has as its target Serine/threonine-protein kinase PAK 4 (Homo sapiens, UniProt O96013). Kind of test: Binding affinity to recombinant human full-length N-terminal GST-tagged PAK4 expressed in baculovirus expression system using SGKtide as substrate incubated for 1 hr by TR-FRET assay.
Test [15] concerns the target Serine/threonine-protein kinase MARK1 (Homo sapiens, UniProt Q9P0L2). Kind of test: Binding affinity to recombinant full-length N-terminal His-FLAG-tagged MARK1 (unknown origin) expressed in baculovirus infected Sf9 insect cells incubated for 1 hr by TR-FRET assay.
Test [16] concerns the target Tyrosine-protein kinase Fgr (Homo sapiens, UniProt P09769). Kind of test: Binding affinity to recombinant full-length N-terminal His-FLAG-tagged FGR (unknown origin) expressed in baculovirus infected Sf9 insect cells incubated for 1 hr by TR-FRET assay.
Test [17] addresses Death-associated protein kinase 2 (Homo sapiens, UniProt Q9UIK4). Kind of test: Binding affinity to recombinant full-length N-terminal His-FLAG-GST-tagged DAPK2 (unknown origin) expressed in baculovirus infected Sf9 insect cells incubated for 1 hr by TR-FRET assay.
For test [18], the target named is Mitogen-activated protein kinase kinase kinase 7 (Homo sapiens, UniProt O43318). Kind of test: Binding affinity to recombinant full-length N-terminal His-FLAG-tagged MAP3K7 (unknown origin) expressed in baculovirus infected Sf9 insect cells incubated for 1 hr by TR-FRET assay.
Mitogen-activated protein kinase kinase kinase 7, sequence (O43318 whole entry): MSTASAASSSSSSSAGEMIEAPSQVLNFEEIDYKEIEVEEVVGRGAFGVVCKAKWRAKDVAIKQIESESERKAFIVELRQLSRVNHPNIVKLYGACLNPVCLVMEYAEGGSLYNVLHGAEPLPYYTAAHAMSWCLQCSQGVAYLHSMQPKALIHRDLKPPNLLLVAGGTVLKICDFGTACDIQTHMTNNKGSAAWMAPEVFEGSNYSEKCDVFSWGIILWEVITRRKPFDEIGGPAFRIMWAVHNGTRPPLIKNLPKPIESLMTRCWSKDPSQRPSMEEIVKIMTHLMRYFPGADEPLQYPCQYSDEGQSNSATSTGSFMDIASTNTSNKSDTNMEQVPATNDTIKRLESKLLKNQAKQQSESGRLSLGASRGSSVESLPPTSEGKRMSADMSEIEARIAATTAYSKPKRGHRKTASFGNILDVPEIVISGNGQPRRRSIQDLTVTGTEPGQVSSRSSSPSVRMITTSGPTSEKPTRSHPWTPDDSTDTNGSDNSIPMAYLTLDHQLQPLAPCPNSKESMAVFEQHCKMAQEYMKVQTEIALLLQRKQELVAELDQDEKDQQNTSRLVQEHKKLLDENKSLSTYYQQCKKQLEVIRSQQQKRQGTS
In test [19] the target is Tyrosine-protein kinase ITK/TSK (Homo sapiens, UniProt Q08881). Kind of test: Binding affinity to recombinant human full-length N-terminal GST-tagged ITK expressed in baculovirus expression system using srctide as substrate incubated for 1 hr by TR-FRET assay.
The target in test [20] is 5'-AMP-activated protein kinase catalytic subunit alpha-2 (Homo sapiens, UniProt P54646). Kind of test: Binding affinity to recombinant full-length N-terminal His-FLAG-GST-tagged PRKAA2 (unknown origin) (10 to 552 residues) expressed in baculovirus infected Sf9 insect cells incubated for 1 hr by TR-FRET assay.
For test [21], the target named is Serine/threonine-protein kinase D2 (Homo sapiens, UniProt Q9BZL6). Kind of test: Binding affinity to recombinant full-length N-terminal His-FLAG-tagged PRKD2 (unknown origin) expressed in baculovirus infected Sf9 insect cells incubated for 1 hr by TR-FRET assay.
Test [22] has as its target Serine/threonine-protein kinase 26 (Homo sapiens, UniProt Q9P289). Kind of test: Binding affinity to recombinant full-length N-terminal His-FLAG-tagged MST4 (unknown origin) expressed in baculovirus infected Sf9 insect cells incubated for 1 hr by TR-FRET assay.
Test [23] concerns the target Platelet-derived growth factor receptor beta (Homo sapiens, UniProt P09619). Kind of test: Binding affinity to recombinant human N-terminal his-tagged PDGFRB (558 to 1106 residues) expressed in baculovirus expression system incubated for 1 hr by TR-FRET assay.
In test [24] the target is CDK7/Cyclin H/MNAT1 (Homo sapiens, UniProt P50613). Kind of test: Binding affinity to recombinant human full length N-terminal GST-tagged and N-terminal GST-tagged CDK7/cyclinH/MAT1 expressed in baculovirus expression system using CTD3 peptide as substrate incubated for 1 hr by TR-FRET assay.
CDK7/Cyclin H/MNAT1, sequence (P51946 whole entry): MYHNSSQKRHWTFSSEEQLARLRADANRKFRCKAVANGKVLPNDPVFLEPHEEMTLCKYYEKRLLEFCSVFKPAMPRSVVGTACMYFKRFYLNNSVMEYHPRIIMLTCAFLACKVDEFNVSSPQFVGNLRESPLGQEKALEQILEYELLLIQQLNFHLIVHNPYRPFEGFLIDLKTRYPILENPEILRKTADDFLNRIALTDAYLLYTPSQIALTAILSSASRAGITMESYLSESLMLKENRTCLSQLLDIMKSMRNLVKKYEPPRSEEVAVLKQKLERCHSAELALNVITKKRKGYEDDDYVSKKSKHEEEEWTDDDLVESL
CDK7/Cyclin H/MNAT1, sequence (P50613 whole entry): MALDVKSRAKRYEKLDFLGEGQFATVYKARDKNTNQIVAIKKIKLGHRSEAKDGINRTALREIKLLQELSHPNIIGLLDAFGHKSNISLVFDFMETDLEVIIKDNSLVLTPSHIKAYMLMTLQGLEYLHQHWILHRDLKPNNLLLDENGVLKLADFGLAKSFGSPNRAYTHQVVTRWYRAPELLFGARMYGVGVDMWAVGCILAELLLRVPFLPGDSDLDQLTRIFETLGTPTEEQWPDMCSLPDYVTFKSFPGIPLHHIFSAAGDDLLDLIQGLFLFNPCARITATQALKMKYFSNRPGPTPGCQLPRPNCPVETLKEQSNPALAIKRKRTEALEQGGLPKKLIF
CDK7/Cyclin H/MNAT1, sequence (P51948 whole entry, further chain): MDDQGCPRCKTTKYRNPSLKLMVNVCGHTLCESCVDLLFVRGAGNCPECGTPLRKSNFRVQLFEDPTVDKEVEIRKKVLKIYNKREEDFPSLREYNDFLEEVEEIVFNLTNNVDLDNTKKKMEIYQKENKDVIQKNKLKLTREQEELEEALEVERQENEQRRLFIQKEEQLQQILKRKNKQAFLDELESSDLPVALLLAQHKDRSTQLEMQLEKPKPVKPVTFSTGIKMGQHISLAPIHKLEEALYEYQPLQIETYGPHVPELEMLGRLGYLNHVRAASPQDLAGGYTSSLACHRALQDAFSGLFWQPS

Serine/threonine-protein kinase 26, sequence (Q9P289 whole entry, the tested form may be a part): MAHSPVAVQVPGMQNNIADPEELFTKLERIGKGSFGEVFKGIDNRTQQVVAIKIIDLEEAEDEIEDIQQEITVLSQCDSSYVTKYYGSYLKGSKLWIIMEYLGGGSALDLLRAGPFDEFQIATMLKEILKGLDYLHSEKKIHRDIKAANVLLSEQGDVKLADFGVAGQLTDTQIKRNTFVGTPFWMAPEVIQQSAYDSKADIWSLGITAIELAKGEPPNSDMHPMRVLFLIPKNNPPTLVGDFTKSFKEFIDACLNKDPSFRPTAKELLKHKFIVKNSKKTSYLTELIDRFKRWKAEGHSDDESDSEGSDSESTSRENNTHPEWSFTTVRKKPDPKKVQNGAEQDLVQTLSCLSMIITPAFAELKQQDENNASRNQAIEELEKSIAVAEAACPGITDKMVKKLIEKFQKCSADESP
Platelet-derived growth factor receptor beta, sequence (P09619 whole entry, the tested form may be a part): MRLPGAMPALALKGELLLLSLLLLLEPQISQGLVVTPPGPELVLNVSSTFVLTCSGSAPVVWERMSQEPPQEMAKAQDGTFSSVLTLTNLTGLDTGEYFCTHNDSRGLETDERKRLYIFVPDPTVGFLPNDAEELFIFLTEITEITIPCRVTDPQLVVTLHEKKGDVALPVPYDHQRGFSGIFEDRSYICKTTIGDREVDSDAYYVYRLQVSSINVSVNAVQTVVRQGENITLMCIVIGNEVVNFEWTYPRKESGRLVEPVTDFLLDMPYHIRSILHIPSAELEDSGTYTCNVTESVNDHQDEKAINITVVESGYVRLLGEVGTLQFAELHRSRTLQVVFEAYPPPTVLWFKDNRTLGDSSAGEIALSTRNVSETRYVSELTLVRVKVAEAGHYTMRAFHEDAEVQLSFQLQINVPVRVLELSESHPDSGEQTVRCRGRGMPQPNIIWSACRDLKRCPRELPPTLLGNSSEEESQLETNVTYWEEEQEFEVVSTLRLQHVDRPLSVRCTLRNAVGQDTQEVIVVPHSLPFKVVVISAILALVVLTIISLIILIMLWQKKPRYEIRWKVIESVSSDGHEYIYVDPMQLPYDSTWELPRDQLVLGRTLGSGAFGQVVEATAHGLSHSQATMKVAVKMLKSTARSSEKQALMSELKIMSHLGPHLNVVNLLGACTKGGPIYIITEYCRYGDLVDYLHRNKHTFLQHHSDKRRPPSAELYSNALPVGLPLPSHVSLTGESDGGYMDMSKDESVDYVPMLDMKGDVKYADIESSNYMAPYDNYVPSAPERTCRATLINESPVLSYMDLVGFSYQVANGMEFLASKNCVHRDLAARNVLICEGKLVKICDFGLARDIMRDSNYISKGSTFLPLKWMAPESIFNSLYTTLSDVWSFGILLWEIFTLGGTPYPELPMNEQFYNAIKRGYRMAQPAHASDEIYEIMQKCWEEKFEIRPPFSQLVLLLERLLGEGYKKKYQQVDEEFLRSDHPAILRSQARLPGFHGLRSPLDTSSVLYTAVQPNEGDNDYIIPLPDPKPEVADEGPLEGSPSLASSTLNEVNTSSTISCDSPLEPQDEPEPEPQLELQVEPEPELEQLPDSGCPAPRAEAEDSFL
Tyrosine-protein kinase FRK, sequence (P42685 whole entry, the tested form may be a part): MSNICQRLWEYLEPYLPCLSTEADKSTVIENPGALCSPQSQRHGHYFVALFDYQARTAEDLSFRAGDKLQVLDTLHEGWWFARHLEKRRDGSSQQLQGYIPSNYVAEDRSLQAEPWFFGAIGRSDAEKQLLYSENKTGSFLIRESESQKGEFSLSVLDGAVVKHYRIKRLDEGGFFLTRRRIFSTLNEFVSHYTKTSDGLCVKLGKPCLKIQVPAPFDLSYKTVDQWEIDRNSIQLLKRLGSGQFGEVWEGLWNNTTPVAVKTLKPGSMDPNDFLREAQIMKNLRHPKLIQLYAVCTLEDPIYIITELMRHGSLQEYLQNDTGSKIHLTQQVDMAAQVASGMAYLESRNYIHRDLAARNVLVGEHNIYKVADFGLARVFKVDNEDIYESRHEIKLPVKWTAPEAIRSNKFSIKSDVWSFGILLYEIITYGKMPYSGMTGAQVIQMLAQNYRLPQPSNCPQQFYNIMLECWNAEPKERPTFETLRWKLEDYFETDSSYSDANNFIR
Serine/threonine-protein kinase ULK3, sequence (Q6PHR2 whole entry): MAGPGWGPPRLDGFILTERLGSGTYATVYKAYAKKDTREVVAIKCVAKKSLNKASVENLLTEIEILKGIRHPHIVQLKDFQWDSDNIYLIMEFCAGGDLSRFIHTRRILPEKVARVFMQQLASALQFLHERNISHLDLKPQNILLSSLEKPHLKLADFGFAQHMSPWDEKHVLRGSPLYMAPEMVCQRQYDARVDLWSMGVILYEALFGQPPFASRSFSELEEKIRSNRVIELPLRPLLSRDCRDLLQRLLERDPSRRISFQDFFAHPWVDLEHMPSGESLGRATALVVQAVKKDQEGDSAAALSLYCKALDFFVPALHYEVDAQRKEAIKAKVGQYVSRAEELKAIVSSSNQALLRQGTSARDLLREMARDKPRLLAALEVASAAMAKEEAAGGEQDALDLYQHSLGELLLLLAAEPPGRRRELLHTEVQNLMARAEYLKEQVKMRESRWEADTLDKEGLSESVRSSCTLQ

As a reminder, the Kd is a measure of binding affinity in units of concentration. Take `CO[C@@H]1[C@H](N(C)CCOCCOCCOCCNC(=O)CCC2=[N+]3C(=Cc4c(C)cc(C)n4[B-]3(F)F)C=C2)C[C@H]2O[C@]1(C)n1c3ccccc3c3c4c(c5c6ccccc6n2c5c31)C(=O)NC4`: the Kd in test [1] amounted to 1200 nM; in test [2] it was 6 nM; in [3], 6 nM; in [4] it was 14 nM; in [5], 213 nM; in test [6] it was 1020 nM. Besides, the Kd in test [7] was 294 nM; in test [8], 43 nM; in test [9], 59 nM; in test [10] it was more than 2000 nM; in [11] it was 324 nM; in [12] it was 372 nM. Further, the Kd is 19 nM in [13]; 6 nM in test [14]; 3 nM in [15]; 119 nM in test [16]; 60 nM in test [17]; 60 nM in test [18]. For the same compound, the Kd is 765 nM in test [19]; 46 nM in test [20]; 140 nM in test [21]; 983 nM in test [22]; 257 nM in test [23]; 819 nM in [24].
As to `CO[C@@H]1[C@H](NCCOCCOCCOCCNC(=O)CCC2=[N+]3C(=Cc4c(C)cc(C)n4[B-]3(F)F)C=C2)C[C@H]2O[C@]1(C)n1c3ccccc3c3c4c(c5c6ccccc6n2c5c31)C(=O)NC4`, the Kd was found to be 844 nM in test [1]; 4 nM in test [2]; 2 nM in [3]; 16 nM in test [4]; 329 nM in [5]; 948 nM in test [6]. For the same compound, the Kd turned out to be 328 nM in test [7]; 92 nM in test [8]; 69 nM in test [9]; 759 nM in test [10]; 279 nM in test [11]; 332 nM in [12]. In addition, the Kd in test [13] came out at 18 nM; in [14], 5 nM; in [15] it was 9 nM; in test [16] it was 101 nM; in test [17], 34 nM; in test [18] it was 44 nM. Besides, the Kd was found to be 379 nM in [19]; 45 nM in [20]; 79 nM in test [21]; 687 nM in test [22]; 165 nM in test [23]; 894 nM in [24].
